Laboratory results reported in US9926267B2, “Covalent inhibitors of K-Ras G12C” (Araxes Pharma LLC, priority 2013, dated 2018).

target: T1, KRAS G12C 1-169, his-tagged protein, GDP-loaded (Homo sapiens, UniProt P01116, G12C); assay: Biochemical assay: covalent binding to KRAS G12C, measured by mass spectrometry; conditions: Binding activity determined at 2 hrs; Table 8b
T1 construct: KRAS G12C 1-169, his-tagged protein, GDP-loaded
Description: Test compounds were prepared as 10 mM stock solutions in DMSO (Fisher cat#BP-231-100). KRAS G12C 1-169, his-tagged protein, GDP-loaded was diluted to 2 μm in buffer (20 mM Hepes, 150 mM NaCl, 1 mM MgCl2). Compounds were tested for activity as follows:
Compounds were diluted to 50× final test concentration in DMSO in 96-well storage plates. Compound stock solutions were vortexed before use and observed carefully for any sign of precipitation. Dilutions were as follow: • For 100 μM final compound concentration, compounds were diluted to 5000 μM (5 μl 10 mM compound stock+5 μl DMSO and mixed well by pipetting. • For 30 μM final compound concentration, compounds were diluted to 1500 μM (3 μl 10 mM compound stock+17 μl DMSO) and mixed well by pipetting. • For […] final compound concentration, compounds were diluted to 500 μM (2 μl 10 mM compound stock+38 μl DMSO) and mixed well by pipetting. 49 μl of the stock protein solution was added to each well of a 96-well PCR plate (Fisher cat#1423027). 1 μl of the diluted 50× compounds were added to appropriate wells in the PCR plate using 12-channel pipettor. Reactions were mixed carefully and thoroughly by pipetting up/down with a 200 μl multi-channel pipettor. The plate was sealed well with aluminum plate seal, and stored in a drawer at room temperature for 2 hrs or 24 hrs. 5 μl of 2% formic acid (Fisher cat#A117) in DI H2O was then added to each well followed by mixing with a pipette. The plate was then resealed with aluminum seal and stored on dry ice until analyzed as described below.
The above described assays were analyzed by mass spectrometry according to the following procedure:
The MS instrument is set to positive polarity, 2 GHz resolution, and low mass (1700) mode and allowed to equilibrate for 30 minutes. The instrument is then calibrated, switched to acquisition mode and the appropriate method loaded.
After another 30 minute equilibration time, a blank batch (i.e., buffer) is run to ensure equipment is operating properly. The samples are thawed at 37° C. for 10 minutes, briefly centrifuged, and transfer to the bench top. Wells A1 and H12 are spiked with 1 uL 500 uM internal standard peptide, and the plates centrifuged at 2000×g for 5 minutes. The method is then run and masses of each individual well recorded.
The masses (for which integration data is desired) for each well are pasted into the platemap and exported from the analysis. Masses for the internal standards are exported as well. The data at 50 ppm is extracted for the +19 charge state, and identity of well A1 is assigned using the internal standard spike and integrated. Peak data is exported as a TOF list and the above steps are repeated individually, for the +20, 21, 22, 23, 24, and charge states.

T1 sequence (P01116 1-169 isoform P01116-2 G12C): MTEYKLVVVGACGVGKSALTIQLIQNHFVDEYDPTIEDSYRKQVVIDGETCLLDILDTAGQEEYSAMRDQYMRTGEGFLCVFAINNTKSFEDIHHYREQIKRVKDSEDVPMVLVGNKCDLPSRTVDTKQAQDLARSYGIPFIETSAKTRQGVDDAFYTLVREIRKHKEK

Compound | Binding %
C=CC(=O)N1CCN(C(=O)c2cc(-c3ccc(Cl)cc3)c(Cl)cc2O)CC1C#N (stereo not shown) [VI-37, 1-Acryloyl-4-(4′,6-dichloro-4-hydroxy-[1,1′-biphenyl]-3-carbonyl)piperazine-2-carbonitrile] | ++ (++ indicates binding activity greater than 20%)
C=CC(=O)N1CCN(C(=O)c2cc(-c3cc(Cl)ccc3Cl)c(Cl)cc2O)CC1C#N (stereo not shown) [VI-38, 1-acryloyl-4-(2′,5′,6-trichloro-4-hydroxybiphenyl-carbonyl)piperazine-2-carbonitrile] | ++ (++ indicates binding activity greater than 20%)
C=CC(=O)N1CCN(C(=O)c2cc(Cl)c(-c3ccccc3Cl)cc2O)CC1 [VI-41, 1-(4-(2,2′-dichloro-5-hydroxybiphenyl-carbonyl)piperazin-1-yl)prop-2-en-1-one] | + (+ indicates binding activity from 5% to 20%)
C=CC(=O)N1CCN(C(=O)c2cc(Cl)c(-c3cccc(Cl)c3)cc2O)CC1 [VI-43, 1-(4-(2,3′-dichloro-5-hydroxybiphenyl-carbonyl)piperazin-1-yl)prop-2-en-1-one] | + (+ indicates binding activity from 5% to 20%)

same assay, conditions: Binding activity determined at 24 hrs; Table 8a

Compound | Binding %
C=CC(=O)N1CCN(C(=O)c2cc(O)c(Cl)c(-c3ccccc3Cl)c2)CC1 [VI-27] | +++ (+++ indicates binding activity greater than 20% and up to 30%)
C=CC(=O)N1CCN(C(=O)c2cn(-c3cc(Cl)ccc3Cl)c(=O)cc2O)CC1 [VI-28, 5-(4-acryloylpiperazine-1-carbonyl)-1-(2,5-dichlorophenyl)-4-hydroxypyridin-2(1H)-one] | ++ (++ indicates binding activity greater than 10% and up to 20%)
C=CC(=O)N1CCN(C(=O)c2cc(-c3ccccc3)c(Cl)cc2O)CC1 [VI-29, 1-(4-(6-chloro-4-hydroxybiphenyl-carbonyl)piperazin-1-yl)prop-2-en-1-one] | +++ (+++ indicates binding activity greater than 20% and up to 30%)
C=CC(=O)N1CCN(C(=O)c2cc(-c3ccccc3Cl)c(Cl)[nH]2)CC1 [VI-30, 1-(4-(5-chloro-4-(2-chlorophenyl)-1H-pyrrole-2-carbonyl)piperazin-1-yl)prop-2-en-1-one] | ++ (++ indicates binding activity greater than 10% and up to 20%)
C=CC(=O)N1CCN(C(=O)c2cc(-c3cc(Cl)ccc3Cl)c[nH]2)CC1 [VI-31, 1-(4-(4-(2,5-dichlorophenyl)-1H-pyrrole-2-carbonyl)piperazin-1-yl)prop-2-en-1-one] | + (+ indicates binding activity from 5% to 10%)
C=CS(=O)(=O)NC1CCN(C(=O)c2ccc(Cl)c(Cl)c2)CC1 [VI-33, N-(1-(3,4-dichlorobenzoyl)piperidin-4-yl)ethenesulfonamide] | + (+ indicates binding activity from 5% to 10%)
C=CS(=O)(=O)N1CCN(C(=O)c2ccc(Cl)c(Cl)c2)CC1 [VI-34, (3,4-dichlorophenyl)(4-(vinylsulfonyl)piperazin-1-yl)methanone] | +++ (+++ indicates binding activity greater than 20% and up to 30%)
C=CS(=O)(=O)N[C@H]1CCCN(C(=O)c2ccc(Cl)c(Cl)c2)C1 [VI-35, (S)-N-(1-(3,4-dichlorobenzoyl)piperidin-3-yl)ethenesulfonamide] | ++ (++ indicates binding activity greater than 10% and up to 20%)
C=CC(=O)N1CCN(C(=O)c2ccc(Cl)c(Cl)c2)CC1 [VI-36, 1-(4-(3,4-dichlorobenzoyl)piperazin-1-yl)prop-2-en-1-one] | + (+ indicates binding activity from 5% to 10%)
